Measured values published in patent US11622984B2, “Composition comprising aster sphathulifolius maxim extract for preventing, improving, or treating muscular diseases or for improving muscular functions” (NEWTREE CO., LTD., priority 2018, dated 2023).

Legend:
Type in all cases: in vivo, C57BL/6 mice
p-mTOR = assay: Western blot protein expression in gastrocnemius of muscle atrophy mouse model; details: 370 mg/kg oral, 14 days
Description: An animal experiment was conducted to confirm whether an Aster spathulifolius extract improved muscle atrophy in a muscle atrophy mouse model. Five-week-old male C57BL/6 mice were adapted to an animal laboratory environment for one week, and then divided into five groups according to an experimental condition, and immobilization of the legs to induce muscle atrophy and oral administration of samples were performed for two weeks. Specifically, experimental groups were divided into an untreated control group (normal group, Cont), a muscle atrophy induced group (induction group, IM), a positive control group (HMB administered group, HMB 370) induced with muscle atrophy and administered with beta-hydroxy beta-methylbutyrate (HMB) (370 mg/kg), a group (Aster spathulifolius low-dose administered group, AS 100) induced with muscle atrophy and administered with a low dose (100 mg/kg) of Aster spathulifolius extract, and a group (Aster spathulifolius high-dose administered group, AS 200) induced with muscle atrophy and administered with a high dose (200 mg/kg) of Aster spathulifolius extract. […] After 2 weeks of leg fixation and oral administration of the sample, the gastrocnemius and the quadriceps of one hind leg were extracted, and the weights thereof were measured, normalized in proportion to the body weight, and then compared and shown in FIG. 1. […]

murf-1 = assay: qRT-PCR mRNA expression in gastrocnemius of muscle atrophy mouse model; details: 370 mg/kg oral, 14 days, induction group about 3 times
Description: (§1) An animal experiment was conducted to confirm whether an Aster spathulifolius extract improved muscle atrophy in a muscle atrophy mouse model. Five-week-old male C57BL/6 mice were adapted to an animal laboratory environment for one week, and then divided into five groups according to an experimental condition, and immobilization of the legs to induce muscle atrophy and oral administration of samples were performed for two weeks. […] After 2 weeks of leg fixation and oral administration of the sample, the gastrocnemius and the quadriceps of one hind leg were extracted, and the weights thereof were measured, normalized in proportion to the body weight, and then compared and shown in FIG. 1. […]
(§2) To confirm whether the Aster spathulifolius extract improved the mRNA expression levels of muscle atrophy-related factors, muscle ring finger-1 (MuRF-1) and Atrogin-1, in a muscle atrophy mouse model, quantitative real-time PCR (qRT-PCR) was performed. […]

atrogin-1 = assay: as above; details: 370 mg/kg oral, 14 days, induction group about three times
Description: as §1, §2

[1] = test system: muscle atrophy mouse model; assay: Cross-sectional area of muscle fibers (H&E staining, image J) in muscle atrophy mouse model; details: 370 mg/kg oral, 14 days
Description: (§3) An animal experiment was conducted to confirm whether an Aster spathulifolius extract improved muscle atrophy in a muscle atrophy mouse model. Five-week-old male C57BL/6 mice were adapted to an animal laboratory environment for one week, and then divided into five groups according to an experimental condition, and immobilization of the legs to induce muscle atrophy and oral administration of samples were performed for two weeks. Specifically, experimental groups were divided into an untreated control group (normal group, Cont), a muscle atrophy induced group (induction group, IM), a positive control group (HMB administered group, HMB 370) induced with muscle atrophy and administered with beta-hydroxy beta-methylbutyrate (HMB) (370 mg/kg), a group (Aster spathulifolius low-dose administered group, AS 100) induced with muscle atrophy and administered with a low dose (100 mg/kg) of Aster spathulifolius extract, and a group (Aster spathulifolius high-dose administered group, AS 200) induced with muscle atrophy and administered with a high dose (200 mg/kg) of Aster spathulifolius extract. Immobilization of the legs was performed by applying a fixing tool manufactured by using a 1.5 ml microfuge tube, clips, and a Velcro tape as shown in References (Disease models & mechanisms, 8(9), 1059-1069, 2015) to one hind leg of the mouse. All samples were dissolved in 0.5% carboxymethylcellulose (CMC) and orally administered once a day for 14 days from a day of application of leg fixation. After 2 weeks of leg fixation and oral administration of the sample, the gastrocnemius and the quadriceps of one hind leg were extracted, and the weights thereof were measured, normalized in proportion to the body weight, and then compared and shown in FIG. 1. As a result, compared to the normal group (Cont), the induction group (IM) induced muscle atrophy, resulting in a weight loss of about 40% in the gastrocnemius and about 33% in the quadriceps in proportion to the body weight. In the HMB-administered group (HMB 370), as the positive control group, the gastrocnemius decreased by about 24% and the quadriceps decreased by about 17%, showing about 16% and 16% of a muscle atrophy protective ability, respectively. On the other hand, in the low-dose group of Aster spathulifolius (AS 100), the gastrocnemius decreased by about 27% and the quadriceps decreased by about 22%. In the high-dose group of Aster spathulifolius (AS 200), the gastrocnemius decreased by about 25% and the quadriceps decreased by about 18%.
Histological analysis was conducted to confirm whether an Aster spathulifolius extract improved the reduction in cross-sectional area of muscle fibers in a muscle atrophy mouse model. The gastrocnemius and quadriceps tissues extracted in Example 2 above were fixed with 4% paraformaldehyde and then subjected to hematoxylin and eosin staining (H&E staining), and thereafter, the cross-sectional area of the dyed muscle fibers was quantified through image J software, and the results were shown in FIGS. 2 and 3.

[2] = test system: muscle atrophy mouse model; assay: Muscle tissue weight in leg-immobilization muscle atrophy mouse model
Description: as §3

With CC(C)(O)CC(=O)O [HMB, beta-hydroxy beta-methylbutyrate] the p-mTOR protein expression (p-mTOR) was “large increase”, the “murf-1 gene expression relative to normal group” value (murf-1) was “about 1.7 times” and the “atrogin-1 gene expression relative to normal group” value (atrogin-1) was “about 1.3 times”. The “protective ability against the cross-sectional area of muscle fibers, gastrocnemius” value [1] was 17%, the “protective ability against the cross-sectional area of muscle fibers, quadriceps” value [1] was 19% and the “reduction in muscle fiber size (H&E staining)” value ([1]; both muscle tissues) was “the reduction in muscle fiber size was alleviated”. For the same compound, the “decrease of cross-sectional area of muscle fiber vs normal group, quadriceps” value ([1]; induction group about 47%) was “about 28%”, the “decrease of cross-sectional area of muscle fiber vs normal group, gastrocnemius” value ([1]; induction group about 50%) was “about 33%” and the “quadriceps weight decrease in proportion to body weight vs normal group” value ([2]; 370 mg/kg oral once a day, 14 days leg fixation, induction group about 33%) was “about 17%”. The “gastrocnemius weight decrease in proportion to body weight vs normal group” value ([2]; 370 mg/kg oral once a day, 14 days leg fixation, induction group about 40%) was “about 24%”, the “muscle atrophy protective ability (muscle weight), gastrocnemius” value ([2]; 370 mg/kg oral, 14 days) was “about 16%” and the “muscle atrophy protective ability (muscle weight), quadriceps” value ([2]; 370 mg/kg oral, 14 days) was “about 16%”.
